Measurements published in patent US20100305095A1, “Use of HPPD Inhibitors in the Treatment of Depression and/or Withdrawal Symptoms Associated with Addictive Drugs” (priority 2006, published 2010).

Assays:
Format in all cases: in vivo
[1] = test system: plasma tyrosine, dopamine levels and dopamine turnover; assay: Plasma tyrosine, dopamine levels and dopamine turnover in orally dosed mice; conditions: 0.1 mg/Kg oral; for plasma tyrosine levels: vs vehicle control
Description: Illustration of increase in levels and turnover of dopamine as a mechanism for treatment/prevention of depression and treatment of the withdrawal symptoms associated with withdrawal from an addictive drug such as cocaine. 10 mice were dosed orally with 0.1 mg/Kg of 2-(2-Nitro-4-Trifluoromethylbenzoyl)-1,3-Cyclohexanedione. As a control, 10 mice were orally dosed with the dosing vehicle. After 24 hours, plasma tyrosine levels were identified. Dopamine levels and dopamine turnover were also analysed. 10 mice were dosed orally with 0.1 mg/Kg of 2-(2-Nitro-4-Trifluoromethylbenzoyl)-1,3-Cyclohexanedione. As a control, 9 mice were orally dosed with the dosing vehicle. After 6 hours, plasma tyrosine levels were identified. Dopamine levels and dopamine turnover were also analysed.

[2] = test system: rats; assay: Activity cage with automatic infrared activity monitoring (rearing, activity, mobility) in rats; conditions: 2 mg/Kg oral, after 4 hours, one hour in activity cage
Description: Analysis of stimulatory effect of HPPD inhibitors as a mechanism for the treatment of withdrawal symptoms associated with an addictive drug such as nicotine. 12 rats were dosed orally with 2 mg/Kg of 2-(2-Nitro-4-Trifluoromethylbenzoyl)-1,3-Cyclohexanedione. As a control, 12 rats were orally dosed with the dosing vehicle. After 4 hours, animals were each placed in an activity cage for one hour, containing an automatic activity monitoring system with infrared beams to determine activity and mobility.

[3] = test system: plasma tyrosine, dopamine turnover and noradrenaline levels; assay: Plasma tyrosine, dopamine turnover and noradrenaline levels in orally dosed rats; conditions: 2 mg/Kg oral, after 24 hours
Description: 10 rats were dosed orally with 2 mg/Kg of 2-(2-Nitro-4-Trifluoromethylbenzoyl)-1,3-Cyclohexanedione. As a control, 10 rats were orally dosed with the dosing vehicle. After 24 hours, plasma tyrosine levels were identified. Dopamine levels and dopamine turnover and noradrenaline levels were also analysed.

How did the “dopamine increase compared with the mean of the controls” value ([1]; after 6 hours) turn out when O=C1CCCC(O)=C1C(=O)c1ccc(C(F)(F)F)cc1[N+](=O)[O-] [2-(2-Nitro-4-Trifluoromethylbenzoyl)-1,3-Cyclohexanedione] was run?
The value was “up to 15%”.

What about the “dopamine turnover increase compared with the mean of the controls” value ([1]; after 6 hours) of the same compound?
The value was “up to 15%”.

What about the plasma tyrosine levels ([1]; after 6 hours) of the same compound?
Its plasma tyrosine levels is “elevated”.

What about the “dopamine increase compared with the mean of the controls” value ([1]; after 24 hours) of the same compound?
The value was “up to 16%”.

And the “dopamine turnover increase compared with the mean of the controls” value ([1]; after 24 hours)?
The value was “up to 27%”.

And the plasma tyrosine levels ([1]; after 24 hours)?
The plasma tyrosine levels was “elevated”.

And the “active time, decrease compared with the control group” value [2]?
Its value is about 27%.

What about the “activity counts, decrease compared with the control group” value [2] of the same compound?
The value was “approximately 43%”.

And the “centre rearing counts, increase compared with the control group” value [2]?
The value was 63%.

And the “effect on rearing behaviour” value [2]?
The value was “mild stimulatory effect”.

What about the “mean rearing counts, increase compared with the control group” value [2] of the same compound?
The value was 91%.

What about the “mobile time, decrease compared with the control group” value [2] of the same compound?
Its value is about 49%.

What about the “rearing time, increase compared with the control group” value [2] of the same compound?
The value was 79%.

What about the “dopamine turnover increase in the treated compared with the control group” value [3] of the same compound?
The value was 25%.

And the “noradrenaline increase compared with the mean of the controls” value ([3]; cortex)?
The value was “up to 76%”.

What about the “noradrenaline increase compared with the mean of the controls” value ([3]; hypothalamus) of the same compound?
Its value is at most 21%.

And the plasma tyrosine levels ([3]; vs vehicle control)?
Its plasma tyrosine levels is “elevated”.
